This note sets out measurements from ChEMBL document CHEMBL5528067, “From Synergy to Monotherapy: Discovery of Novel 2,4,6-Trisubstituted Triazine Hydrazone Derivatives with Potent Antifungal Potency In Vitro and In Vivo” (J Med Chem, 2024).

For data set [1], the system named is Candida albicans. Nature of the data set: Antifungal activity against FCZ-resistant Candida albicans strain 901 assessed as growth inhibition measured after 48 hrs incubation by CLSI based micro-dilution broth method. It counts as functional.
Data set [2] has as its system Candida albicans. Nature of the data set: Antifungal activity against FCZ-resistant Candida albicans strain 901 assessed as growth inhibition in presence of fluconazole measured after 48 hrs incubation by CLSI based micro-dilution broth method. It counts as functional. Background: Broth dilution looks for growth in wells or tubes with falling amounts of substance.
Data set [3] concerns Candida albicans. Kind of data set: Antifungal activity against FCZ-resistant Candida albicans strain 904 assessed as growth inhibition measured after 48 hrs incubation by CLSI based micro-dilution broth method. In kind it is functional.
The subject of data set [4] is Candida albicans. Kind of data set: Synergistic antifungal activity against FCZ-resistant Candida albicans strain 904 assessed as fractional inhibitory concentration index measured after 48 hrs in presence of FCZ by CLSI based micro-dilution broth method. In kind it is functional.
Data set [5] concerns Candida albicans. Nature of the data set: Antifungal activity against FCZ-resistant Candida albicans 10231 assessed as growth inhibition measured after 48 hrs incubation by CLSI based micro-dilution broth method. It counts as functional.
Data set [6] has as its system Cryptococcus neoformans. Kind of data set: Antifungal activity against Cryptococcus neoformans 32609 assessed as growth inhibition measured after 48 hrs incubation by CLSI based micro-dilution broth method. It counts as functional.
The test system of another data set is Pichia kudriavzevii. Kind of data set: Antifungal activity against Candida krusei 4996 assessed as growth inhibition measured after 48 hrs incubation by CLSI based micro-dilution broth method. It counts as functional.
In another data set the test system is Candida tropicalis. Nature of the data set: Antifungal activity against Candida tropicalis 8915 assessed as growth inhibition measured after 48 hrs incubation by CLSI based micro-dilution broth method. It counts as functional.
Data set [7] concerns Cryptococcus neoformans. Kind of data set: Antifungal activity against FCZ-resistant Cryptococcus neoformans 32609 assessed as growth inhibition at 0.5 to 4 microg/ml measured at 24 hrs incubation by time growth assay. It counts as functional, organism-based. The settings on record: dose 0.5-4 µg/ml.
For data set [8], the system named is Candida albicans. Nature of the data set: Filamentation inhibitory effect in Candida albicans SC5314 assessed as inhibition of hyphal formation using hyphal-inducing RPMI 1640 medium by measuring shorter hyphal at 2 to 8 microg/ml measured after 8 hrs by inverted imaging microscopy. It counts as functional, organism-based. The note with it: dose 2-8 µg/ml.
The test system of data set [9] is Candida albicans. Kind of data set: Antibiofilm activity against Candida albicans SC5314 assessed as inhibition of biofilm formation at 64 microg/ml incubated for 24 hrs by XTT/menadione reduction assay relative to control. It counts as functional. On the set-up: scale not given: the % may be the effect or the level left. The settings on record: dose 64 µg/ml. Background: Tetrazolium assays rely on reduction of a dye to a coloured formazan, in cell work by metabolically active cells.

The subject of data set [10] is Candida albicans. Nature of the data set: Suppression of ALS3 gene expression in Candida albicans SC5314 at 4 to 8 microg/ml by real time RT-PCR analysis. It counts as functional. The settings on record: dose 4-8 µg/ml. (Real-time PCR tracks product formation cycle by cycle.)
For data set [11], the system named is Candida albicans. Nature of the data set: Effect on HWP1 gene expression in Candida albicans SC5314 at 4 to 8 microg/ml by real time RT-PCR analysis. It counts as functional. The settings on record: dose 4-8 µg/ml.
The subject of data set [12] is Candida albicans. Kind of data set: Induction of cell wall component change in Candida albicans SC5314 assessed as change in chitin content by measuring […] fluorescence intensity at 4 microg/ml measured after 12 hrs by confocal laser-scanning microscopy. In kind it is functional, organism-based. The note with it: dose 4.0 µg/ml.
A short description of data set [13]: Hemolytic activity in rabbit Red blood cell assessed as hemolysis rate at 64 microg/ml incubated for 1 hr. It counts as toxicity, cell-based, Oryctolagus cuniculus, Erythrocyte. The note with it: red blood cells, at 64 µg/mL, read-out: Activity.
Data set [14] is described as follows: Half life in Sprague-Dawley rat at 2 mg/kg, iv measured upto 24 hrs by LC-MS/MS analysis. It counts as ADME, organism-based. The settings on record: in vivo.
The nature of data set [15]: Volume of distribution at steady state in Sprague-Dawley rat at 2 mg/kg, iv measured upto 24 hrs by LC-MS/MS analysis. In kind it is ADME, organism-based. The settings on record: in vivo, read-out: Vdss.
The nature of data set [16]: Clearance in Sprague-Dawley rat at 2 mg/kg, iv measured upto 24 hrs by LC-MS/MS analysis. It counts as ADME, organism-based. The settings on record: in vivo.
Data set [17] can be described thus: AUC (0 to infinity) in Sprague-Dawley rat at 2 mg/kg, iv measured upto 24 hrs by LC-MS/MS analysis. It counts as ADME, organism-based. The settings on record: in vivo.

Converted amounts (≈) assume the structure as drawn. The source made the active and inactive calls. No cut-off for these calls is given here.

By MIC80 is commonly meant an inhibitory concentration at the 80% level, which refers to growth in some studies and to a panel of isolates in others. For orientation: half-life means how long it takes for the measured level to halve. The clearance is the rate of elimination divided by the concentration. A word on the AUC(0-inf): it is total exposure, with the tail of the curve extrapolated. With `O=[N+]([O-])c1ccc(O)c(/C=N/Nc2nc(NCc3ccc(F)cc3)nc(NCc3ccc(F)cc3)n2)c1`, the MIC80 with Candida albicans [1] came out at 2 mg/L (≈ 3.95 µM); in the data set with Candida albicans [2], 0.25 mg/L; in the data set on Candida albicans [3] it was 1 mg/L (≈ 1.97 µM); in the data set on Candida albicans [5] it was 16 mg/L (≈ 31.6 µM); in the data set on Cryptococcus neoformans [6], 1 mg/L (≈ 1.97 µM); with Pichia kudriavzevii, 1 mg/L (≈ 1.97 µM). In the data set with Candida tropicalis, the MIC80 is 2 mg/L (≈ 3.95 µM). In addition, the “fractional inhibitory concentration index (FICI)” value in the data set on Candida albicans [4] came to 0.38. The outcome in the data set on Cryptococcus neoformans [7], with Candida albicans [8], in the data set with Candida albicans [10] and with Candida albicans [12] was Active. The Activity with Candida albicans [9] is recorded as 70%. The outcome in the data set with Candida albicans [11] was inactive. In addition, the hemolysis at 1 h, 64 microg/ml in data set [13] turned out to be 4.92%. In data set [14], this compound showed a half-life of 1.28 h. In [15], the Vd came to 1.08 L/kg. This compound yielded a clearance in [16] of 1.37 L/h/kg. In data set [17], this compound showed an AUC(0-inf) of 1.47 µg·h/mL.
